Article PMC9007940, “Oscillatory calcium release and sustained store-operated oscillatory calcium signaling prevents differentiation of human oligodendrocyte progenitor cells” (Scientific Reports, 2022)

Experiments:
[1] = system: T1, muscarinic acetylcholine receptor M3 (M1/3R); test: GCaMP6s calcium imaging dose-response (AUC) in primary human OPCs, endogenous M1/M3 receptors; format: cell-based
T1 construct: gene CHRM3

[2] = target: T2, metabotropic type 5 glutamate receptor (mGluR5) (Homo sapiens, UniProt P41594); test: GCaMP6s calcium imaging dose-response (AUC) in primary human OPCs, endogenous receptor; format: cell-based
T2 construct: gene GRM5
T2 sequence (P41594 21-1212): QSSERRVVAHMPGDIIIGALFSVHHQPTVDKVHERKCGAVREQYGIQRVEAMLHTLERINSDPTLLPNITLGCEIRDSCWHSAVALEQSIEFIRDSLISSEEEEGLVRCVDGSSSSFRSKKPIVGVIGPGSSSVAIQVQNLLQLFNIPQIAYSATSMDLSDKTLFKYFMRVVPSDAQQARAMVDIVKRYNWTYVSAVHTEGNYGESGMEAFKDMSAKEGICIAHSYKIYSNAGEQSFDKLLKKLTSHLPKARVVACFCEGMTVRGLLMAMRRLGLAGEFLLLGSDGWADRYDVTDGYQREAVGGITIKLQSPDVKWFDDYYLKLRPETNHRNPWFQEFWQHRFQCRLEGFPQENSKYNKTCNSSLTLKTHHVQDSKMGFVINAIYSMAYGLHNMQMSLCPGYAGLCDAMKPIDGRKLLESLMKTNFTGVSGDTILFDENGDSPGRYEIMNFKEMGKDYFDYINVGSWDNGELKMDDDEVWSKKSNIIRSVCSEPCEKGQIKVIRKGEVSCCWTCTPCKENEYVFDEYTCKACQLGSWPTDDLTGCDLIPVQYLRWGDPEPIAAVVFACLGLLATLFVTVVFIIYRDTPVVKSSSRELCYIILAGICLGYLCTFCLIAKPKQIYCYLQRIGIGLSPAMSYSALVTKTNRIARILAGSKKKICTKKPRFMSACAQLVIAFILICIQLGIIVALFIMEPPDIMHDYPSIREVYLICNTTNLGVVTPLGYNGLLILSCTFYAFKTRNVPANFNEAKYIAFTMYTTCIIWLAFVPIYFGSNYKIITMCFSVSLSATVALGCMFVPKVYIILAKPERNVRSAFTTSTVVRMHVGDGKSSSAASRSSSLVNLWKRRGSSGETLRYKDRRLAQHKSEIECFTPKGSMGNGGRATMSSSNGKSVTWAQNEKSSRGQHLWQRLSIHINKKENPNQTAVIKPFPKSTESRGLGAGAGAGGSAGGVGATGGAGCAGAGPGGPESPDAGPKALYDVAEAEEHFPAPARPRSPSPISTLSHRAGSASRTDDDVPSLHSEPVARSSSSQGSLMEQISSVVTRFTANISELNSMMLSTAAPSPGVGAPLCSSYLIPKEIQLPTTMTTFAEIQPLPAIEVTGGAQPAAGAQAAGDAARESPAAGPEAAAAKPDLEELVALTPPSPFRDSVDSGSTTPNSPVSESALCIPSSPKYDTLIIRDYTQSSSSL

Row | EC50 [2] [µM] | Compound | EC50 [1] [µM]
1 | – | C[N+](C)(C)CC#CCN1CCCC1=O [Oxo-M] | 2.2
2 | 1300 | NC(C(=O)O)c1cc(O)ccc1Cl (centres unmarked) [CHPG] | –
